System: CD1 female mouse brain lipidome
Experiment: Brain-region lipid levels (HPLC/MS/MS lipidomics) 2 h after single i.p. 3 mg/kg CP 55,940 vs vehicle
Assay type: in vivo
Parameters: N-arachidonoyl phenylalanine level, Mean / N-stearoyl tryptophan level, Mean / N-stearoyl proline level, Mean / N-stearoyl leucine level, Mean / N-stearoyl phenylalanine level, Mean / N-stearoyl serine level, Mean / N-stearoyl methionine level, Mean: unit: moles per gram
Experimental: The Bloomington Institutional Animal Care and Use Committee of Indiana University reviewed and approved the animal procedures. Female mice from the CD1 strain were utilized to match our study examining THC’s effects on the brain lipidome ([Leishman et al., 2018]). Mice were given a single i.p. injection of either 3 mg/kg CP or 1:1:18 cremophor:ethanol:saline vehicle (please refer to the section “3 mg/kg CP Is Relevant for Synthetic Cannabinoid Abuse and Has Stronger Effects on the Female Mouse Brain Lipidome During Adolescence” for a justification of dose and use of female mice). Three different age groups were given injections: PND 35 and PND 50 adolescents, and adult mice (PND 113). At least eight mice in each age group received CP and at least eight received vehicle. Matching the THC study time course ([Leishman et al., 2018]), mice were sacrificed via rapid decapitation 2 h after injection. Brains were immediately removed and flash-frozen in liquid nitrogen, and then stored at -80°C until dissections were performed. Brains were dissected on an ice-cold dissection plate into the following regions: STR, HIPP, CER, THAL, CTX, HYP, MID, and STEM. These abbreviations for these brain areas will be used exclusively when discussing the results generated by these specific dissections. Each dissected area was immediately placed in liquid nitrogen and then stored at -80°C until used for lipid extraction.
Tissue extracts were performed as previously described ([Bradshaw et al., 2006]; [Stuart et al., 2013]; [Raboune et al., 2014]; [Leishman et al., 2016a],[b], [2017], [2018]). First, samples were shock frozen in liquid nitrogen, weighed, and transferred to a centrifuge tube. The mass of the largest sample was multiplied by 50 to determine how many milliliters of HPLC-grade methanol (Fisher, Fair Lawn, NJ, United States) to add. Then, samples were spiked with 500 pmol deuterium-labeled NAGly (d8NAGly; Cayman Chemical, Ann Arbor, MI, United States). Samples were placed on ice in darkness for 2 h then individually homogenized and centrifuged at 19,000 × g for 20 min at 20°C. Supernatants were diluted with HPLC water (purified in house) to make a solution of 75% water, 25% supernatant. Lipids were partially purified on C18 solid phase extraction columns (Agilent, Palo Alto, CA, United States). A series of four elutions with 1.5 mL of 60%, 75%, 85%, and 100% methanol were collected ([Stuart et al., 2013]; [Leishman et al., 2016a],[b], [2018]).
As previously described ([Bradshaw et al., 2006]; [Tan et al., 2006]; [Smoum et al., 2010]; [Stuart et al., 2013]; [Tortoriello et al., 2013]; [Raboune et al., 2014]; [Leishman et al., 2016a],[b], [2017], [2018]), samples were analyzed using an Applied Biosystems API 3000 triple quadrupole mass spectrometer with electrospray ionization (Foster City, CA, United States). Using an Agilent XDB-C18 reversed phase analytical column and optimized mobile phase gradients, 20 μL from each elution were chromatographed. Two Shimadzu 10ADvp pumps (Columbia, MD, United States) provided the pressure for gradient elution. Mobile phase A: 20% methanol, 80% water (v/v) and 1 mM ammonium acetate (Sigma, St. Louis, MO, United States). Mobile phase B: 100% methanol, 1 mM ammonium acetate. Every method run began with 0% mobile phase B, reached 100% mobile phase B flowing at 0.2 mL/min, and gradually returned to 0% mobile phase B.
This screening library will be referred to as the lipidome when discussing data from this study. HPLC/MS/MS data were analyzed using Analyst software (Applied Biosystems) ([Bradshaw et al., 2006]; [Tan et al., 2006]; [Stuart et al., 2013]; [Tortoriello et al., 2013]; [Raboune et al., 2014]; [Leishman et al., 2016a],[b], [2017], [2018]). Chromatograms (Supplementary Figure 3) were generated by determining the retention time of analytes from the analytical column with a [M-1] or [M+1] parent peak and a fragmentation peak corresponding to the programmed values. […]

[1] = adult brainstem, 3mg/kg CP 55,940

CCCCCCC(C)(C)c1ccc([C@@H]2C[C@H](O)CC[C@H]2CCCO)c(O)c1 [CP 55,940]
N-stearoyl serine level vs vehicle (adult HIPP): ↓ (1-1.49 times lower than vehicle) | PGE2 level vs vehicle (adult HIPP): ↑ (1-1.49 times higher than vehicle) | PGE2 mean level in CP group divided by vehicle group (adult HIPP): 1.18 | PGF2α level vs vehicle (adult HIPP): ↑ (1-1.49 times higher than vehicle) | number of lipids changed (adult HIPP): 12 | phosphoLEA level vs vehicle (adult HIPP): ↑ (1-1.49 times higher than vehicle) | PGE2 mean level (adult HIPP, CP group): 3.37x10^-10 moles per gram | 6-ketoPGF1α level vs vehicle (adult HYP): ↓↓ (1.50-1.99 times lower than vehicle) | N-arachidonoyl GABA level vs vehicle (adult HYP): ↓ (1-1.49 times lower than vehicle) | N-arachidonoyl taurine level vs vehicle (adult HYP): ↑ (1-1.49 times higher than vehicle) | N-palmitoyl phenylalanine level vs vehicle (adult HYP): ↑↑ (1.50-1.99 times higher than vehicle) | PGE2 level vs vehicle (adult HYP): ↑ (1-1.49 times higher than vehicle) | PGF2α level vs vehicle (adult HYP): ↓ (1-1.49 times lower than vehicle) | number of lipids changed (adult HYP): 7 | phosphoLEA level vs vehicle (adult HYP): ↓ (1-1.49 times lower than vehicle) | 2-arachidonoyl glycerol level vs vehicle (adult MID): ↓ (1-1.49 times lower than vehicle) | 2-linoleoyl glycerol level vs vehicle (adult MID): ↓ (1-1.49 times lower than vehicle) | 2-oleoyl glycerol level vs vehicle (adult MID): ↓ (1-1.49 times lower than vehicle) | 6-ketoPGF1α level vs vehicle (adult MID): ↑ (1-1.49 times higher than vehicle) | Arachidonic acid level vs vehicle (adult MID): ↓ (1-1.49 times lower than vehicle) | N-arachidonoyl ethanolamine level vs vehicle (adult MID): ↓ (1-1.49 times lower than vehicle) | N-arachidonoyl serine level vs vehicle (adult MID): ↓↓ (1.50-1.99 times lower than vehicle) | N-linoleoyl glycine level vs vehicle (adult MID): ↓↓ (1.50-1.99 times lower than vehicle) | N-linoleoyl serine level vs vehicle (adult MID): ↓ (1-1.49 times lower than vehicle) | N-palmitoyl ethanolamine level vs vehicle (adult MID): ↓ (1-1.49 times lower than vehicle) | N-stearoyl ethanolamine level vs vehicle (adult MID): ↑ (1-1.49 times higher than vehicle) | PGE2 level vs vehicle (adult MID): ↑ (1-1.49 times higher than vehicle) | changes in lipid levels that were decreases (adult MID): 10 | changes in lipid levels that were increases (adult MID): 3 | percentage of lipids detected that decreased (adult MID): 18.52% | percentage of lipids detected that increased (adult MID): 5.55% | phosphoLEA level vs vehicle (adult MID): ↓ (1-1.49 times lower than vehicle) | number of lipids changed (adult MID, 54 detected): 13 | 2-arachidonoyl glycerol level vs vehicle (adult STEM): ↓ (1-1.49 times lower than vehicle) | 2-linoleoyl glycerol level vs vehicle (adult STEM): ↓ (1-1.49 times lower than vehicle) | 2-oleoyl glycerol level vs vehicle (adult STEM): ↓ (1-1.49 times lower than vehicle) | 2-palmitoyl glycerol level vs vehicle (adult STEM): ↓ (1-1.49 times lower than vehicle) | Arachidonic acid level vs vehicle (adult STEM): ↓ (1-1.49 times lower than vehicle) | Linoleic acid level vs vehicle (adult STEM): ↓ (1-1.49 times lower than vehicle) | N-arachidonoyl taurine level vs vehicle (adult STEM): ↓ (1-1.49 times lower than vehicle) | N-arachidonoyl tyrosine level vs vehicle (adult STEM): ↓↓ (1.50-1.99 times lower than vehicle) | N-oleoyl ethanolamine level vs vehicle (adult STEM): ↓ (1-1.49 times lower than vehicle) | N-palmitoyl leucine level vs vehicle (adult STEM): ↑ (1-1.49 times higher than vehicle) | N-palmitoyl valine level vs vehicle (adult STEM): ↑ (1-1.49 times higher than vehicle) | Oleic Acid level vs vehicle (adult STEM): ↓ (1-1.49 times lower than vehicle) | PGE2 level vs vehicle (adult STEM): ↓ (1-1.49 times lower than vehicle) | number of lipids changed (adult STEM): 13 | 2-arachidonoyl glycerol level vs vehicle (adult STR): ↓ (1-1.49 times lower than vehicle) | Arachidonic acid level vs vehicle (adult STR): ↓ (1-1.49 times lower than vehicle) | N-arachidonoyl ethanolamine level vs vehicle (adult STR): ↓↓ (1.50-1.99 times lower than vehicle) | N-docosahexaenoyl ethanolamine level vs vehicle (adult STR): ↓ (1-1.49 times lower than vehicle) | N-linoleoyl ethanolamine level vs vehicle (adult STR): ↓ (1-1.49 times lower than vehicle) | N-oleoyl ethanolamine level vs vehicle (adult STR): ↓↓ (1.50-1.99 times lower than vehicle) | N-oleoyl leucine level vs vehicle (adult STR): ↑ (1-1.49 times higher than vehicle) | N-palmitoyl serine level vs vehicle (adult STR): ↓ (1-1.49 times lower than vehicle) | number of lipids changed (adult STR): 8 | 2-arachidonoyl glycerol level vs vehicle (adult THAL): ↓ (1-1.49 times lower than vehicle) | 2-linoleoyl glycerol level vs vehicle (adult THAL): ↓ (1-1.49 times lower than vehicle) | 6-ketoPGF1α level vs vehicle (adult THAL): ↑ (1-1.49 times higher than vehicle) | Arachidonic acid level vs vehicle (adult THAL): ↓ (1-1.49 times lower than vehicle) | N-arachidonoyl GABA level vs vehicle (adult THAL): ↓ (1-1.49 times lower than vehicle) | N-arachidonoyl alanine level vs vehicle (adult THAL): ↓↓ (1.50-1.99 times lower than vehicle) | N-arachidonoyl ethanolamine level vs vehicle (adult THAL): ↓ (1-1.49 times lower than vehicle) | N-arachidonoyl glycine level vs vehicle (adult THAL): ↓↓ (1.50-1.99 times lower than vehicle) | N-oleoyl ethanolamine level vs vehicle (adult THAL): ↓ (1-1.49 times lower than vehicle) | N-palmitoyl GABA level vs vehicle (adult THAL): ↑ (1-1.49 times higher than vehicle) | N-palmitoyl ethanolamine level vs vehicle (adult THAL): ↓ (1-1.49 times lower than vehicle) | N-palmitoyl leucine level vs vehicle (adult THAL): ↑ (1-1.49 times higher than vehicle) | N-palmitoyl methionine level vs vehicle (adult THAL): ↑ (1-1.49 times higher than vehicle) | N-palmitoyl valine level vs vehicle (adult THAL): ↑↑ (1.50-1.99 times higher than vehicle) | Oleic Acid level vs vehicle (adult THAL): ↓ (1-1.49 times lower than vehicle) | number of lipids changed (adult THAL): 15 | changes in PG levels (adult brain): 14 | changes in lipoamines derived from AA (adult brain): 20 | decreases in 2-acyl glycerol levels (adult brain): 15 | decreases in PG levels (adult brain): 8 | decreases in free fatty acid levels (adult brain): 11 | increases in PG levels (adult brain): 6 | percentage of detected lipids modified with acute CP (adult brain, 406 detected): 23.89% | 2-arachidonoyl glycerol, Direction (relative to Veh) [1]: ↓ | 2-arachidonoyl glycerol, Magnitude (x Veh level) [1]: 0.78 x Veh level | 2-linoleoyl glycerol Direction (relative to Veh) [1]: ↓ | 2-linoleoyl glycerol Magnitude (x Veh level) [1]: 0.76 x Veh level | 2-oleoyl glycerol, Direction (relative to Veh) [1]: ↓ | 2-oleoyl glycerol, Magnitude (x Veh level) [1]: 0.82 x Veh level | 2-palmitoyl glycerol, Direction (relative to Veh) [1]: ↓ | 2-palmitoyl glycerol, Magnitude (x Veh level) [1]: 0.80 x Veh level | Arachidonic acid, Direction (relative to Veh) [1]: ↓ | Arachidonic acid, Magnitude (x Veh level) [1]: 0.86 x Veh level | Linoleic acid, Direction (relative to Veh) [1]: ↓ | Linoleic acid, Magnitude (x Veh level) [1]: 0.71 x Veh level | N-arachidonoyl GABA level, Mean [1]: 1.08E-11 | N-arachidonoyl alanine level, Mean [1]: 9.45E-13 | N-arachidonoyl dopamine level, Mean [1]: BDL | N-arachidonoyl ethanolamine level, Mean [1]: 1.14E-11 | N-arachidonoyl glycine level, Mean [1]: 1.87E-12 | N-arachidonoyl phenylalanine level, Mean [1]: 5.84E-14 | N-arachidonoyl taurine Direction (relative to Veh) [1]: ↓ | N-arachidonoyl taurine Magnitude (x Veh level) [1]: 0.94 x Veh level | N-arachidonoyl tyrosine, Direction (relative to Veh) [1]: ↓ | N-arachidonoyl tyrosine, Magnitude (x Veh level) [1]: 0.66 x Veh level | N-docosahexaenoyl GABA level, Mean [1]: 7.61E-12
